From patent US20230181681A1, “PEPTIDE FOR SUPPRESSING CORONAVIRUS AND USE THEREOF” (priority 2020, published 2023) come the findings set out here.

Ends that are not written are not given here.

The subject of experiment [1] is HCoV-OC43. The experiment in a line: HCoV-OC43 S and N protein production in infected Vero cells (Western blotting, confocal microscopy). It is filed as cell-based. The settings on record: 0.1 MOI, peptide 6 hours after infection, 48 h, FIGS. 20 to 22. (A western blot detects proteins with antibodies after separation by electrophoresis.)
Experiment [2] deals with MERS-CoV. The class given is cell-based.
In experiment [3] the test system is SARS-CoV-2. It is filed as cell-based.
The subject of experiment [4] is HCoV-OC43. As to the kind of experiment: HCoV-OC43 production in Vero cells by plaque formation assay. It is filed as cell-based. The settings on record: 0.1 MOI, 2 μM peptide 6 hours after infection, 48 hours, plaque formation test, FIG. 23.
For experiment [5], the system named is MERS-CoV N protein. It is filed as binding.
Experiment [6] concerns interaction of MERS-CoV Spike CD with MERS-CoV N protein. It is filed as binding.

Regarding “CCTGCGTSCFKKCGGCCDDYTGYQELVIKTSHDD [Spike CD-OC43]”, the “production of S protein and N protein of HCoV-OC43” value in experiment [1] is reported as “no effect was observed”.
Regarding “NH2-d-RRRRRRRRRR-AQARRKNYGQLDIFP-COOH [R-CP-1]”, in experiment [2], the MERS-CoV plaque formation entry is “no effect was observed”. The “reduction of SARS-CoV-2 production” value in experiment [3] amounted to 40%.
For the substance “R-Spike CD-OC43 (RRRRRRRRRCCTGCGTSCFKKCGGCCDDYTGYQELVIKTSHDD; not fully specified; cysteine pairing not given here)”, the “reduction of HCoV-OC43 production” value in experiment [4] is recorded as 20%.
Consider TGCGTNCMGKLKCNRC [Spike CD-F], for which, in experiment [5], the “binding of Spike CD peptides with N protein” value is “can tightly bind with N protein”. Also, in experiment [6], the “relative activity in inhibiting the interaction between Spike CD-Full and N protein” value was “highest activity”.
